Laboratory results from paper PMC3086806, “Mining a Cathepsin Inhibitor Library for New Antiparasitic Drug Leads” (PLoS Neglected Tropical Diseases, 2011).
pIC50, pKi: −log10 of the molar value.

Key:
human cathepsin B = target: human cathepsin B; set-up: method as in data provided by Celera Genomics; settings: historical data; ref data provided by Celera Genomics; read-out: Ki catB; cited from earlier work
human cathepsin L = target: human cathepsin L; set-up: method as in data provided by Celera Genomics; settings: historical data; ref data provided by Celera Genomics; read-out: Ki catL; cited from earlier work
cruzain = target: T1, cruzain (Trypanosoma cruzi, UniProt P25779); experiment: Cruzain protease inhibition assay (Z-Phe-Arg-AMC); format: biochemical
T1 construct: made in house
T1 sequence (P25779 123-467): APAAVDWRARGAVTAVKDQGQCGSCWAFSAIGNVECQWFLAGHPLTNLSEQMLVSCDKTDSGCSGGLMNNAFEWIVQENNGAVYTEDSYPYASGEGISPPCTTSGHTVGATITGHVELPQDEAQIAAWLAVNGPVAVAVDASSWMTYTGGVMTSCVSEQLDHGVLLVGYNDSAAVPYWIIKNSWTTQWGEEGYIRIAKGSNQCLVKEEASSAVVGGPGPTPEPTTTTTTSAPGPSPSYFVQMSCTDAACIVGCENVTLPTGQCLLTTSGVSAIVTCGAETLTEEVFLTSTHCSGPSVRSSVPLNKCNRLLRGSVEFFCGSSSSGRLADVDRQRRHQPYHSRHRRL
Method: (§1) Recombinant cruzain, rhodesain, TbCatB, falcipain-2 and falcipain-3 were expressed as described previously, [39], [40], [41], [42]. Inhibitor stock solutions were prepared in DMSO and screened at 0.1 µM for cruzain and rhodesain, 1 µM for TbCatB and 50 nM for falcipain-3 (0.5% DMSO in assay). […] Protease inhibition assays for cruzain and rhodesain were carried out in 96 well plate format as described previously. Cruzain (4 nM), rhodesain (4 nM) or TbCatB (258 nM) was incubated with test compound in 100 mM sodium acetate, pH 5.5, containing 5 mM DTT and 0.01% Triton X-100 (buffer A), for 5 min at room temperature (the higher concentration of TbCatB was required due to its lower intrinsic activity against the fluorogenic substrate). Then buffer A containing Z-Phe-Arg-AMC (Bachem) was added to enzyme-compound mixture to give 10 µM substrate in a final assay volume of 200 µL. The rate of free AMC release was measured at excitation and emission wavelengths of 355 and 460 nm, respectively, with a microtiter plate spectrofluorimeter (SpectraMax M5, Molecular Devices) for 3 min. Percentage inhibition of test compound was calculated relative to the DMSO control (0% inhibition control). IC50 values were determined with Prism 4 software (GraphPad, San Diego, CA) using sigmoidal dose-response variable slope model.

[1] = tested on: intracellular T. cruzi (CA-I/72) in BESM cells; experiment: T. cruzi amastigote growth inhibition assay; format: cell-based; settings: Trypanosoma cruzi; infected BESM cells, 72 hours
Method: (§2) The growth inhibition assay for the intracellular T. cruzi was conducted in 96-well plate format as described previously. Briefly, bovine embryo skeletal muscle (BESM) cells (2×10^3/well), seeded overnight, were infected with CA-I/72 T. cruzi trypomastigotes (2×10^3/well). Sixteen hours post-infection, test compounds (serial dilution concentrations starting from 20 µM) were added and assay plates were incubated for an additional 72 hours at 37°C with 5% CO2. Cells were then washed once in PBS, fixed with 4% paraformaldehyde and stained with DNA fluorescent dye DAPI (4′ 6-diamidino-2-phenylindole). The assay plates were then imaged in the IN Cell Analyzer 2000 (GE Healthcare) with the excitation and emission filters set of 350 nm and 460 nm, respectively, to detect DAPI signals. The feature extraction module in IN Cell Developer Toolbox 1.7 software was used to count host nuclei and parasite kinetoplasts by size difference.

[2] = Jurkat cell cytotoxicity assay; format: cell-based; settings: human, Jurkat cells (clone E6-1), read-out: Cytotoxicity (% inhibition at 10 µM) Jurkat cells
Method: Jurkat cells (clone E6-1) were grown in complete RPMI-1640 medium containing 10% FBS, 50 U/mL penicillin and 50 µg/mL streptomycin (Invitrogen) at 37°C under a humidified atmosphere and 5% CO2. For cytotoxicity testing, cells were diluted to 1×10^5 per ml in complete RPMI-1640 medium. Test compound stocks were prepared in 100% DMSO and screened at 10 µM against cells (1×10^4 cells per well) in sterile Greiner 96-well flat white opaque culture plates (0.5% final DMSO concentration). The 0% inhibition control wells contained 0.5% DMSO while 100% inhibition control wells contained 40 µM staurosporine. After compound addition, plates were incubated for 40 hr at 37°C. At the end of the incubation period, 50 µL of CellTiter-Glo™ reagent (Promega Inc., Madison, WI, USA) was added to each well and plates were placed on an orbital shaker at room temperature for 2 min to induce lysis. After a further 10 min incubation without shaking to stabilize the signal, the ATP-bioluminescence of each well was determined using an Analyst HT plate reader (Molecular Devices, Sunnyvale, CA, USA). Calculations of percentage inhibition and IC50 were performed similar to those in the T. brucei brucei assay.

TbCatB = target: T2, TbCatB (Trypanosoma brucei, UniProt Q6R7Z5); experiment: TbCatB protease inhibition assay (Z-Phe-Arg-AMC); format: biochemical
T2 construct: made in house
T2 sequence (Q6R7Z5 23-340): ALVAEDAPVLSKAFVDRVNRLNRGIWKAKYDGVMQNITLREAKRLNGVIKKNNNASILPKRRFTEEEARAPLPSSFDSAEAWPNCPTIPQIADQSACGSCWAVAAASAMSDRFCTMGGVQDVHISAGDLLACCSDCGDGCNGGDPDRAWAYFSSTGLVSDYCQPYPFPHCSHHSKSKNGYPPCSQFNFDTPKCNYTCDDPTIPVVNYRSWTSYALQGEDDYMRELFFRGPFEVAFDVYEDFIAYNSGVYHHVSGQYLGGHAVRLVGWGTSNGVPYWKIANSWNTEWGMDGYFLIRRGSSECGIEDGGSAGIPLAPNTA
Method: as §1

[3] = tested on: T. brucei brucei clone 427-221a bloodstream forms; experiment: T. brucei brucei growth inhibition assay; format: cell-based; settings: Trypanosoma brucei; 40 hours
Method: The growth inhibition assay for T. brucei brucei was conducted as described previously. Bloodstream forms of the monomorphic T. brucei brucei clone 427-221a were grown in complete HMI-9 medium containing 10% FBS, 10% Serum Plus medium (Sigma Inc. St. Louis Mo. USA), 50 U/mL penicillin and 50 µg/mL streptomycin (Invitrogen) at 37°C under a humidified atmosphere and 5% CO2. […] 5 µL of each dilution was added to 95 µL of diluted parasites (1×10^4 cells per well) in sterile Greiner 96-well flat white opaque culture plates such that the final DMSO concentration was 0.5%. The 0% inhibition control wells contained 0.5% DMSO while 100% inhibition control wells contained 50 µM thimerosal (Sigma). After compound addition, plates were incubated for 40 hours at 37°C. At the end of the incubation period, 50 µL of CellTiter-Glo™ reagent (Promega Inc., Madison, WI, USA) was added to each well and plates were placed on an orbital shaker at room temperature for 2 min to induce lysis. After an additional 10 min incubation without shaking to stabilize the signal, the ATP-bioluminescence of each well was determined using an Analyst HT plate reader (Molecular Devices, Sunnyvale, CA, USA). Raw values were converted to log10 and percentage inhibition calculated relative to the controls. IC50 curve fittings were performed with Prism 4 software as above.

[4] = Toxicity toward host BESM cells in the T. cruzi assay; format: cell-based, bovine; settings: bovine; highest assay concentration 20 µM
Method: as §2
All falcipain-3 inhibitors were also tested against falcipain-2. […] The entire library was examined for cytotoxicity to a mammalian cell line (Jurkat) at a concentration of 10 µM, and those compounds studied in the T. cruzi assay were also evaluated for toxicity (at 20 µM) toward the host BESM cells used in that assay. […]

rhodesain = target: T3, rhodesain (Trypanosoma brucei rhodesiense, UniProt Q95PM0); experiment: Rhodesain protease inhibition assay (Z-Phe-Arg-AMC); format: biochemical
T3 construct: made in house
T3 sequence (Q95PM0 entry or part of it): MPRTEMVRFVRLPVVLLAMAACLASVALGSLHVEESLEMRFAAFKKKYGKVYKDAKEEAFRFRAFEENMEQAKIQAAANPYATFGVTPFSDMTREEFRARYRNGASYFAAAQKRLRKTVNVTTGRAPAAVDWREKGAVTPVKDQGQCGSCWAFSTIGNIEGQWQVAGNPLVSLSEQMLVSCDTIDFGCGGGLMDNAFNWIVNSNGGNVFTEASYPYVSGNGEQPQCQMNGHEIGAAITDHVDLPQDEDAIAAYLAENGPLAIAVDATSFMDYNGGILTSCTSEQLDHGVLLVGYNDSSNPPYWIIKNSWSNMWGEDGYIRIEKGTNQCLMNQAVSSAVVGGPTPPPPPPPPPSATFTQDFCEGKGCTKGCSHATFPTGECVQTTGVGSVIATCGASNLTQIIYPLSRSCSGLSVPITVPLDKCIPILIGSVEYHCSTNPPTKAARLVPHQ
Method: as §1

With `CCCCC(NC(=O)C(CCC)NC(c1ccc(-c2ccc(S(C)(=O)=O)cc2)cc1)C(F)(F)F)C(=O)c1nnc(-c2ccco2)o1` (stereo not drawn) [Compound 24] as the compound, how does the pKi (human cathepsin B) read?
The pKi was 8.80.

What about the pKi (human cathepsin L) of the same compound?
The pKi was 7.74.

And the pIC50 (cruzain)?
Its pIC50 is 8.00.

What about the GI50 [1] of the same compound?
The GI50 was 7.6 µM.

What about the cytotoxicity at 40 h, 10 µM [2] of the same compound?
The cytotoxicity at 40 h, 10 µM was less than 5%.

And the pIC50 (TbCatB)?
Its pIC50 is 7.30.

And the GI50 [3]?
The GI50 was 7 µM.

What about the GI50 at 72 h [4] of the same compound?
Its GI50 at 72 h is greater than 20 µM.

And the pIC50 (rhodesain)?
Its pIC50 is 8.22.
